US20050164903A1, “Complexed surfactant system” (priority 2001, published 2005)
Several values for one entry are separate records, joined by “and”; a condition that tells them apart may be missing. Equal entries are not always repeated. Entries after “also recorded” stand apart in the source; their conditions may differ.

Experiments:
[1] = Solubility noted for synthesized compounds; assay type: physicochemical; settings: noted with the synthesis
[2] = Surface tension and cmc, Kruss tensiometer K12; assay type: physicochemical
Protocol: Samples of which surface tensions were to be measured were prepared by mixing SLS and a cationic compound in a mole ratio of 1:1, wherein deionized water was used as water, and a container for measurement was immersed in a cleaning solution for more than 3 hours, washed with water and acetone, dried in an oven, and then used.
A ring method was used, and after measuring 5 times, a mean value was taken. Solutions of 1%, 0.1%, 0.01%, and 0.001% by weight ratio of each of the cationic compounds were prepared to use for the tests.

[3] = Stability to hard water (10,000 ppm CaCl2 hard water added until cloudiness); assay type: physicochemical; settings: for Precipitation in hard water: 0.5% (weight ratio), 100 ml sample
Protocol: After dissolving 11.69 g of CaCl2.2H2O in 1 liter of water to prepare hard water of 10,000 ppm, it was slowly added to a 0.5% aqueous solution sample, and stability to hard water was evaluated using the amount of hard water added until cloudiness began.
Hard water of 10,000 ppm prepared by dissolving 11.69 g of CaCl2.2H2O in 1 L of water was used for the tests. Stability to hard water was measured by adding hard water until pearl is appear, using 0.5% (weight ratio) of the cationic compound and 100 ml of the sample. This test was repeated by three times, and a mean value was taken.
Hard water at a 10,000 ppm concentration prepared by dissolving 11.69 g of CaCl2.2H2O in 1 L of water was used for the experiments. […] The tests were repeated by three times, and a mean value was measured.

[4] = Foaming property (initial foamability and foam stability), semi-micro TK method; assay type: physicochemical; settings: 1% solution
Description: As samples for measuring initial foamability and foam stability, samples prepared under the same conditions as those used for measuring Krafft point were used (Table 14). […] The semi-micro TK method was used for measurement, and mean values were taken after measuring three times.
The tests were repeated three times and a mean value was taken.
Experiments were repeated three times, and a mean value was taken. For the experiment, a 1% aqueous solution was used.

[5] = Phase stability (appearance) of sample solutions; settings: for Phase stability (appearance of sample solution): 1% aqueous solution
Description: Concentration of a mixed system was controlled to 2% aqueous solution, and a mixing ratio of SLS and the cationic compound was controlled to 1:1 by mole ratio so that changes in physical properties could be remarkably shown (Table 1).

[6] = Measurement of Krafft point (cloudiness on cooling, transparency on re-heating); assay type: physicochemical; settings: 1% solution
Protocol: In the Krafft point test, the temperature when the solution clouded through the previous test becomes transparent again while elevating the temperature were measured.
The temperature when cloudiness begins was measured while cooling the transparent cationic compound solution (condition of lowering temperature). Additionally, the temperature when the solution becomes transparent was measured while elevating the temperature of the cloudy solution (condition of elevating temperature).
Also, while elevating the temperature of the clouded solution, temperatures when the solutions became transparent again were measured (condition when elevating temperature).

Solubility [1]	Surface tension ([2]; concentration 0.01%)	Surface tension ([2]; concentration 0.1%)	Surface tension ([2]; concentration 1%)	Compound	Foaming property, result in words [4]	Phase stability (appearance of sample solution) [5]	other results
soluble in acetone	–	–	–	N-(dimethyldodecylamino ethanol (EO)4 [Synthesis Example 7]	–	–	–
insoluble in acetone	–	–	–	N-(butyidimethylamino)ethanol [Synthesis Example 3]	–	–	–
insoluble in acetone	–	–	–	C[N+](C)(C)CCO [Synthesis Example 5, N-(trimethylamino)ethanol]	–	–	–
–	31.67 mN/m	29.59 mN/m	31.94 mN/m	CCCCCCCCCCCC[N+](C)(C)[O-] [Synthesis Example 19, N-Dimethyl Lauryl Amineoxide]	foam immediately disappeared	transparent	Surface tension ([2]; concentration 0.001%): 53.88 mN/m; Precipitation in hard water [3]: not precipitated; Foaming property, initial foamability, 0 min. [4]: 210 mL; Foaming property, 1 min. ([4]; 1 min.): 55 mL
–	47.50 mN/m	33.90 mN/m	27.91 mN/m	1.6-12-(N,N-methyloctylamino)ethanollhexane [Synthesis Example 17]	No foaming	cloudiness	Concentration at which the solution became transparent ([5]; cationic compound in water): 0.1 wt %
insoluble in acetone	–	–	–	CCCCCCCC[N+](C)(C)CCO [Synthesis Example 2, N-(dimethyloctylamino)ethanol]	–	–	–
–	57.18 mN/m	25.19 mN/m	35.92 mN/m	CCCCCCCCCCCCOS(=O)(=O)[O-].[Na+] [SLS, sodium lauryl sulfate, reference compound]	maintains foam for 5 minutes almost constantly	–	Hard water concentration ([3]; stability to hard water): 310 ppm; Foaming property, initial foamability, 0 min. [4]: 233 mL; Krafft point, when elevating temperature: solution transparent again [6]: 14 °C; Krafft point, when lowering (dropping) temperature: cloudiness begins ([6]; sulfate): 2˜3 °C and 2 °C and 2-3 °C

Compound	Solubility [1]	Surface tension ([2]; concentration 0.01%)	Surface tension ([2]; concentration 0.1%)	Surface tension ([2]; concentration 1%)	Foaming property, result in words [4]	Phase stability (appearance of sample solution) [5]	other results
CCCC[N+](C)([O-])CCCCCC[N+](C)([O-])CCCC (stereo not drawn) [Synthesis Example 23, 16-(N,N-butylmethylamineoxyl)hexane]	–	64.05 mN/m	56.46 mN/m	46.51 mN/m	did not produce foam	transparent	Precipitation in hard water [3]: not precipitated
CC[N+](C)(C)CCO [Synthesis Example 4, N-(dimethylethylamino)ethanol]	soluble in acetone, insoluble in n-hexane	–	–	–	–	–	–
C[N+](C)(CCO)CCCCCC[N+](C)(C)CCO.[I-].[I-] [Synthesis Example 14, 1,6-[2-(N,N-dimethylamino)ethanol]hexane]	–	71.41 mN/m	70.04 mN/m	59.49 mN/m	did not produced foam; also recorded: No foaming	transparent	–
